Patent US20260335323A1, “CHIMERIC MOLECULE” (UCL Business Ltd, priority 2023, published 2026)

Test system: SH-SY5Y cells
Assay: TMRM assay of mitochondrial membrane potential
Format: cell-based, human
Experimental: FIG. 1. The structure of AUTAC-4 is shown in (A). (B) Representative images of SH-SY5Y cells stably expressing the mito-mKeima reporter treated with AUTAC4 for 18 h. Nuclei were stained with Hoechst 33342, healthy mitochondria are shown in green and mitochondria in lysosomes are shown in red. (C-E) Fold change in mitophagy index over time after treatment with increasing concentrations of AUTAC4 under treatment with DMSO (C), 3 mM CCCP (D) or 0.1/0.1 mM antimycin/oligomycin (E), also for 18 h. (F) Quantification of changes in mitochondrial membrane potential over time (DYm) by measuring the TMRM relative fluorescence intensity (RFI) treated with DMSO, 10 mM CCCP, 10 mM and 20 mM AUTAC4. Normalised to number of nuclei. (G) Representative western blot of SH-SY5Y cells treated with DMSO, 10 mM AUTAC4 or 10 mM AUTAC4+0.1/0.1 mM antimycin/oligomycin for 18 h and, probed for p62, b-actin and Tom20. Quantifications of western blot for changes in Tom20 and p62 levels shown in (H) and (I), respectively. (J) Representative images of PANC-1 cells stably expressing the mCherry-EGFP-LC3 tandem reporter. Nuclei stained with Hoechst 33342, autophagosomes are shown in the EGFP channel and autolysosomes in the mCherry channel. Fold change in the number of autophagosome (K) and autolysosome (L) puncta in AUTAC4 treated cells. […] For mito-mKeima experiments, statistics were calculated by Two-way ANOVA with Tukey's multiple comparisons test. For western blots, TMRM and LC3 tandem reporter assay, statistics were calculated with one-way ANOVA with Tukey's multiple comparisons test.
FIG. 5. […] (B) Quantification of the colocalised ULK1 to TOM20 spot area of PANC-1 cells treated with DMSO, 5 mM CCCP, 10 mM BL-918, 10 mM BL-918+5 mM CCCP, […] NZ-65, […] NZ-65+5 mM CCCP, […] NZ-66, […] NZ-66+5 mM CCCP, 50 mM TSPO ligand, […] NZ-65+50 mM TSPO ligand, […] NZ-66+50 mM TSPO ligand. (C) Western blot of SH-SY5Y cells treated with 1 mM ULKTACs, 5 mM CCCP or both, probed for Mfn2, b-Actin and Tom20—quantifications are shown in (D) for Mfn2, normalised to Actin. […]

Compound | mitochondrial membrane potential (TMRM)
O=C(Nc1ccc(F)cc1F)[C@H](NC(=S)Nc1cc(C(F)(F)F)cc(C(F)(F)F)c1)c1ccccc1 [BL-918, reference compound] | depolarisation of the outer mitochondrial membrane at higher concentrations
O=C(Nc1cc(C(F)(F)F)cc(C(F)(F)F)c1)N[C@@H](C(=O)Nc1ccc(F)cc1F)c1ccc(OCc2cn(CCOCCOCCNC(=O)C(=O)c3c(-c4ccccc4)[nH]c4ccccc34)nn2)cc1 [NZ-65, (R)-2-(3-(3,5-bis(trifluoromethyl)phenyl)ureido)-N-(2,4-difluorophenyl)-2-(4-((1-(2-(2-(2-(2-oxo-2-(2-phenyl-1H-indol-3-yl)acetamido)ethoxy)ethoxy)ethyl)-1H-1,2,3-triazol-4-yl)methoxy)phenyl) acetamide] | neither NZ-65 nor NZ-66 showed any effect
O=C(Nc1cc(C(F)(F)F)cc(C(F)(F)F)c1)N[C@@H](C(=O)Nc1ccc(F)cc1F)c1ccc(OCc2cn(CCCCCCNC(=O)C(=O)c3c(-c4ccccc4)[nH]c4ccccc34)nn2)cc1 [NZ-66, (R)-2-(3-(3,5-bis(trifluoromethyl)phenyl)ureido)-N-(2,4-difluorophenyl)-2-(4-((1-(6-(2-oxo-2-(2-phenyl-1H-indol-3-yl)acetamido)hexyl)-1H-1,2,3-triazol-4-yl)methoxy)phenyl) acetamide] | neither NZ-65 nor NZ-66 showed any effect
